Experimental data as given in US20260274894A1, “CYCLIC POLYPEPTIDE COMPOUND AND USE THEREOF” (BIVISION PHARMACEUTICALS, INC., priority 2023, published 2026).
Numbered stars: 1 amine (or outer) side, 2 acyl side, 3 side chain; on linkers, the order of the positions; unused ones are H or OH. Bridge positions count the residues as written; N and C are the ends. Square brackets hold non-standard residues; d marks the D form. Side chains are listed from the residue outwards. Peptide text beside a SMILES is read from it. * marks the point of attachment. ξ: configuration not given here. NH(CH2)2(4-DOTA-piperazinyl) = O=C(O)CN1CCN(CC(=O)O)CCN(CC(=O)N2CCN(CCN*)CC2)CCN(CC(=O)O)CC1; X2 = O=C(O)CN1CCN(CC(=O)O)CCN(CC(=O)N2CCN(CCCN*)CC2)CCN(CC(=O)O)CC1; DOTA = O=C(O)CN1CCN(CC(=O)O)CCN(CC(=O)*)CCN(CC(=O)O)CC1; Azetidine3carboxylic = O=C(C1CN([*:1])C1)[*:2]; mXylylene = c1cc(C[*:1])cc(C[*:2])c1; Cha = N[C@@H](CC1CCCCC1)C(=O)O; Dab = NCC[C@H](N)C(=O)O; Hexanoyl = CCCCCC(=O)*; CO = O=C([*:1])[*:2]; ξP = O=C(O)C1CCCN1; GABA = NCCCC(=O)O; ξC = NC(CS)C(=O)O; NHBu = CCCCN*

What was measured:
[1] = Determination of C Log P (n-octanol/water partition, gamma counts); format: physicochemical
Protocol: Two EP tubes were taken, and 100 μL of saturated n-octanol aqueous solution and 80 µL of pure water were added to each tube, respectively. […] After shaking and mixing for 2 hours, the tubes were centrifuged at room temperature at 2000 rpm/min for 5 minutes. 20 μL was taken from the upper layer (lipid layer) and lower layer (aqueous layer) of each tube, and gamma counts were measured.

HT1080 2 # = assay: Therapeutic results of ^177Lu-labeled compound in tumor-bearing mice (tumor volume); format: in vivo, Balb/c Nude mice
Protocol: The body weight and tumor size were measured.

FAP protein = biological target: T1, FAP protein (Homo sapiens, UniProt Q12884); assay: Biacore test of compound affinity to FAP protein; details: Biacore 8K, SA chip, 15° C., 1:1 binding model; for Kd: read-out: pKD (FAP) (converted)
T1 construct: purchased Sinobiological
T1 sequence (Q12884 1-760): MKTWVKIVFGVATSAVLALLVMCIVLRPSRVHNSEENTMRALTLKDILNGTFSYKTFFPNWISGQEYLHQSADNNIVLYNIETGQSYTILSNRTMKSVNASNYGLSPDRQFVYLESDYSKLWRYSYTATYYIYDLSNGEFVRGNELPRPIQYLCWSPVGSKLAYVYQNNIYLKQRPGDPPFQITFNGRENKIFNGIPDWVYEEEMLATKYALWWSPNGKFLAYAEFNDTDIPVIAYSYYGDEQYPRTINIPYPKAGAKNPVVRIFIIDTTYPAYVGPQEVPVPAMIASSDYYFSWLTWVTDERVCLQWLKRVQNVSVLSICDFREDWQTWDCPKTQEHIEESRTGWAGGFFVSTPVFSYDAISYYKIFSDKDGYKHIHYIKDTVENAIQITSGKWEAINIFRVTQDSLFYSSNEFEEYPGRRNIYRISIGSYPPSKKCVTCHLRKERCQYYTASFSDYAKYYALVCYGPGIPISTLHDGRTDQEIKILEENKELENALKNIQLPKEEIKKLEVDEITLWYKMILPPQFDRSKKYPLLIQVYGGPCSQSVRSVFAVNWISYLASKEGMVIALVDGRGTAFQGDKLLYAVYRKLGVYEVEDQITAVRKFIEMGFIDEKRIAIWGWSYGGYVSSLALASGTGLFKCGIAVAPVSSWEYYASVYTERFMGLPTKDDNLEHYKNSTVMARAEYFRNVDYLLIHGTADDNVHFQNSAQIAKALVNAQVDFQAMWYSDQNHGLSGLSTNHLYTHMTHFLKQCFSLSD
Protocol: The Biacore 8K (Cytiva) instrument was used to detect ligand binding of the FAP protein (Sinobiological). FAP protein was captured on the SA chip. […] The sensor surface was conditioned by injecting 1M NaCl three consecutive times in 50 mM NaOH. After each ligand injection, additional cleaning was performed using isopropanol in 1M NaCl and 50 mM NaOH (flow path 1 and 2, flow rate of 10 μL/min, injection time of 60 s). […] The analyte was run under the following conditions: analysis temperature of 15° C., analysis step=all set to LMW kinetics; cycle type=single cycle (contact time of 90 s, dissociation time of 1800 s, flow rate of 30 μL/min, flow channels 1 and 2); channel detection=2-1. Data was evaluated using the Biacore Insight Evaluation Software, and the data were fitted to a 1:1 binding model. The Biacore results are shown in Table 2 below: pKD=−Log KD, where KD is the binding affinity of the compound to the FAP protein as measured by Biacore.

Compound: CCCCCC(=O)N[C@H]1CCCCn2cc(nn2)CC(C(=O)N[C@@H](CCCCNC(=O)CN2CCN(CC(=O)O)CCN(CC(=O)O)CCN(CC(=O)O)CC2)C(=O)O)NC(=O)[C@H](Cc2ccccc2)NC(=O)[C@H](CCC(N)=O)NC(=O)[C@H]([C@@H](C)O)NC(=O)C2CCCN2C(=O)N[C@@H]2CCCN(C2)C1=O (single isomer, unassigned) [^177Lu -JHDC11, metal not drawn]
- logP [1]: -3.65

Compound: CCCCNC(=O)N[C@H]1CSCc2cncc(c2)CSC[C@@H](C(=O)N[C@@H](CCC(=O)NCCN2CCN(C(=O)CN3CCN(CC(=O)O)CCN(CC(=O)O)CCN(CC(=O)O)CC3)CC2)C(=O)O)NC(=O)[C@H](CC2CCCCC2)NC(=O)[C@H](CCC(N)=O)NC(=O)[C@H]([C@@H](C)O)NC(=O)[C@@H]2CCCN2C(=O)C2CN(C2)C1=O (single isomer, unassigned) [^177Lu-JHDC46, metal not drawn]
- Tumor volume (mm^3) (HT1080 2 #; Day 0): 400.31 ± 78.63 mm^3
- Tumor volume (mm^3) (HT1080 2 #; Day 2): 483.08 ± 95.00 mm^3
- Tumor volume (mm^3) (HT1080 2 #; Day 6): 203.26 ± 49.63 mm^3
- Tumor volume (mm^3) (HT1080 2 #; Day 9): 168.29 ± 33.83 mm^3
- Tumor volume (mm^3) (HT1080 2 #; Day 13): 313.94 ± 119.95 mm^3
- Tumor volume (mm^3) (HT1080 2 #; Day 16): 686.05 ± 297.66 mm^3

Compound: CCCCCC(=O)N[C@H]1CSCc2cccc(c2)CSCC(C(=O)N[C@@H](CCC(=O)NCCCN2CCN(C(=O)CN3CCN(CC(=O)O)CCN(CC(=O)O)CCN(CC(=O)O)CC3)CC2)C(=O)O)NC(=O)[C@H](Cc2ccccc2)NC(=O)[C@H](CCC(N)=O)NC(=O)[C@H]([C@@H](C)O)NC(=O)C2CCCN2C(=O)C2CN(C2)C1=O (stereo partly drawn) [JHDC45, Hex-[Cys(3MeBn)-hhy39-Pro-Thr-Gln-Phe-Cys]-Glu-(aminopropylpiperazine-DOTA)-NH2] (Hexanoyl-C[Azetidine3carboxylic][ξP]TQF[ξC]E(X2)-OH; linker 1-7 via mXylylene)
- Kd (FAP protein): < 10 nM

Compound: CCCCNC(=O)N[C@H]1CSCc2cccc(c2)CSC[C@@H](C(=O)N[C@@H](CCC(=O)NCCN2CCN(C(=O)CN3CCN(CC(=O)O)CCN(CC(=O)O)CCN(CC(=O)O)CC3)CC2)C(=O)O)NC(=O)[C@H](CC2CCCCC2)NC(=O)[C@H](CCC(N)=O)NC(=O)[C@H]([C@@H](C)O)NC(=O)[C@@H]2CCCN2C(=O)C2CN(C2)C1=O [JHDC46, nBu-urea-[Cys(3MePy)-hhy39-Pro-Thr-Gln-hhy34-Cys]-Glu-(aminoethylpiperazine-DOTA)-OH] ({NHBu-CO}-C[Azetidine3carboxylic]PTQ[Cha]CE(NH(CH2)2(4-DOTA-piperazinyl))-OH; linker 1-7 via mXylylene)
- pKD (FAP) (FAP protein): B (B: 7<pKD<8)

Compound: CCCCNC(=O)N[C@H]1CSCc2cccc(c2)CSC[C@@H](C(=O)N[C@@H](CCC(=O)NCCN2CCN(C(=O)CN3CCN(CC(=O)O)CCN(CC(=O)O)CCN(CC(=O)O)CC3)CC2)C(=O)O)NC(=O)[C@H](Cc2ccccc2)NC(=O)[C@H](CCC(N)=O)NC(=O)[C@H]([C@@H](C)O)NC(=O)C2CCCN2C(=O)C2CN(C2)C1=O (stereo partly drawn) [JHDC50, nBu-urea-[Cys(3MeBn)-hhy39-Pro-Thr-Gln-Phe-Cys]-Glu-(aminoethylpiperazine-DOTA)-OH] ({NHBu-CO}-C[Azetidine3carboxylic][ξP]TQFCE(NH(CH2)2(4-DOTA-piperazinyl))-OH; linker 1-7 via mXylylene)
- Kd (FAP protein): 10 to 100 nM

Compound: CCCCNC(=O)N[C@H]1CSCc2cccc(c2)CSCC(C(=O)N[C@@H](CCNC(=O)CCCNC(=O)CN2CCN(CC(=O)O)CCN(CC(=O)O)CCN(CC(=O)O)CC2)C(=O)O)NC(=O)[C@H](CC2CCCCC2)NC(=O)[C@H](CCC(N)=O)NC(=O)[C@H]([C@@H](C)O)NC(=O)[C@@H]2CCCN2C(=O)C2CN(C2)C1=O (stereo partly drawn) [JHDC55, nBu-urea-[Cys(3MeBn)-hhy39-Pro-Thr-Gln-hhy34-Cys]-DABA-(ABA-DOTA)-OH] ({NHBu-CO}-C[Azetidine3carboxylic]PTQ[Cha][ξC][Dab]([GABA-DOTA])-OH; linker 1-7 via mXylylene)
- Kd (FAP protein): < 10 nM
